Patent US9963452B2, “Methods, compounds, and compositions for inhibition of ROS” (AUGUSTA PHARMACEUTICALS INC., priority 2013, dated 2018)
Where two headings read alike, the source gives them in different places.

Experiments:
[1] = biological target: T1, ROS (Homo sapiens, UniProt P08922); test: In vitro ROS enzymatic reaction assay (HTRF, Cisbio); type: biochemical; parameters: ROS or EGFR enzyme, 0.008 ng/ul; settings: for inhibition at 5 µM: ROS kinase, compound at 5 uM, read-out: Kinase Inhib. 5 uM (%)
Procedure: The ROS enzymatic reactions were carried out with a high throughput screening platform for phosphor-detection of kinase activity. This platform based on homogeneous time resolved fluorescence (HTRF) technology from Cisbio Bioassays, Inc. (Cisbio). […] The reaction was allowed to proceed for 30 minutes at room temperature. An equal volume of detection buffer was then added to the reaction mix.

[2] = biological target: T2, EGFR (Homo sapiens, UniProt P00533); test: In vitro EGFR enzymatic reaction assay (HTRF, Cisbio); type: biochemical
T2 construct: ROS or EGFR enzyme, 0.008 ng/ul

[3] = biological target: T1, ROS; settings: reported in background; cited from earlier work
[4] = system: glioblastoma cell lines; test: Glioblastoma growth inhibition by Xalkori (cell-based assay, FIG. 3); settings: depending on the cell line (FIG. 3)
Procedure: Five tumor-derived cell lines were treated with the ROS inhibitor compounds and cell survival was monitored to determine the cancer prohibition effects of the compounds. The cell lines included HeLa, a cervical cancer cell line, and four glioblastoma cell lines U138, U87, LN18, and U118. The basic protocol for the in-vitro cell survival assay is the same for all five cell lines. In particular, the cells were seeded in 96-well plates at 2-5×10^3 cells/well (cell line dependent) in culture medium. The cells were grown for 2 days before the compounds were dissolved in DMSO and added to final concentrations of 100 uM, 10 uM, or 1 uM (DMSO final concentration 0.5%). The cell culture was then assayed one day after the addition of the compounds. The assay used Alamar blue as a redox-sensitive dye that interrogates mitochondrial fitness of cells, and these assays provided a readout for cell proliferation and viability. The raw values were normalized to an average of several vehicle control wells and are presented as percent decrease in proliferation/viability, which is converted to half maximal effective concentration (EC50) values.
FIG. 3: Potency, selectivity and growth inhibitory effects of Xalkori in in vitro kinase and cell-based assays. […] U138 and U118 have been documented to express aberrant ROS (FIG-ROS fusion). […]

[5] = system: U118 glioblastoma cell line; test: In-vitro cell survival assay (Alamar blue), U118; type: cell-based; settings: U118, one day after compound addition
How it was run: (§1)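 Cells seeded at 2-5×10^3 per well, grown 2 days, then exposed to compound at 100, 10 or 1 uM (0.5% DMSO final) for one day. Alamar blue redox dye read as proliferation/viability, normalized to vehicle wells as percent decrease and converted to EC50.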

[6] = system: U87 glioblastoma cell line; test: In-vitro cell survival assay (Alamar blue), U87; type: cell-based; settings: U87, one day after compound addition
How it was run: as §1

[7] = system: U138 glioblastoma cell line; test: In-vitro cell survival assay (Alamar blue), U138; type: cell-based; settings: U138, one day after compound addition
How it was run: as §1

[8] = system: HeLa cervical cancer cell line; test: In-vitro cell survival assay (Alamar blue), HeLa; type: cell-based; settings: one day after compound addition
How it was run: as §1

[9] = system: LN18 glioblastoma cell line; test: In-vitro cell survival assay (Alamar blue), LN18; type: cell-based; settings: LN18, one day after compound addition
How it was run: as §1

T2 sequence (P00533 25-1210, species assumed): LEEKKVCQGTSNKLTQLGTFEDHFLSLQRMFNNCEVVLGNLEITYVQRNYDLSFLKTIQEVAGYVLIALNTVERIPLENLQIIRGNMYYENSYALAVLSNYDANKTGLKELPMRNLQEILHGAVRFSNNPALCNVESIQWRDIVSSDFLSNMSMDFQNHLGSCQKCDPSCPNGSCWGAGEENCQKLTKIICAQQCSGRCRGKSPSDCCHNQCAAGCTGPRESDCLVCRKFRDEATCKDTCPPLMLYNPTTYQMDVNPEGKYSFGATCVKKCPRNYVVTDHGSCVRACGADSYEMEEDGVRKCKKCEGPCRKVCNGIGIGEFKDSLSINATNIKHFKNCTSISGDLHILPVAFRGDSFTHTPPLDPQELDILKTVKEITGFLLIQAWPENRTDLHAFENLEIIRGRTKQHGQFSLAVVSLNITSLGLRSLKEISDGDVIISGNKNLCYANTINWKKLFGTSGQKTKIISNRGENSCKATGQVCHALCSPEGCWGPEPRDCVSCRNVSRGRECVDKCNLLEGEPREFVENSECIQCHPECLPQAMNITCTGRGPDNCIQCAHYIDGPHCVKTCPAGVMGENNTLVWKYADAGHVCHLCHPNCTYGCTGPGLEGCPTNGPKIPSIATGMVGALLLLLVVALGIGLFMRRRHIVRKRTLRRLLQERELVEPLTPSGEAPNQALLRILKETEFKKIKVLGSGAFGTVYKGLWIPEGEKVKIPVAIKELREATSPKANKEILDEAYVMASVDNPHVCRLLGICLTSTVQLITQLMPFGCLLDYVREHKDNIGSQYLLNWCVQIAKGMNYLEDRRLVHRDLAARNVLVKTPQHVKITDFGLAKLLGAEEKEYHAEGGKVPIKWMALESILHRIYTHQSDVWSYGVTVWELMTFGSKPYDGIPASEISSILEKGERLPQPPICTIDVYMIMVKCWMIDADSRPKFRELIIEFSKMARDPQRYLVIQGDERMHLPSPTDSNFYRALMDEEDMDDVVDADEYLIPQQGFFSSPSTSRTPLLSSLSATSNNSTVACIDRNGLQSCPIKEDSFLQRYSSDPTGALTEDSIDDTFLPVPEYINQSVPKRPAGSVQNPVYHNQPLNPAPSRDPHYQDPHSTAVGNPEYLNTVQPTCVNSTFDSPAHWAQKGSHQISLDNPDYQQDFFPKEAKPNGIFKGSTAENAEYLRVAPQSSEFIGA
T1 sequence (P08922 28-2347): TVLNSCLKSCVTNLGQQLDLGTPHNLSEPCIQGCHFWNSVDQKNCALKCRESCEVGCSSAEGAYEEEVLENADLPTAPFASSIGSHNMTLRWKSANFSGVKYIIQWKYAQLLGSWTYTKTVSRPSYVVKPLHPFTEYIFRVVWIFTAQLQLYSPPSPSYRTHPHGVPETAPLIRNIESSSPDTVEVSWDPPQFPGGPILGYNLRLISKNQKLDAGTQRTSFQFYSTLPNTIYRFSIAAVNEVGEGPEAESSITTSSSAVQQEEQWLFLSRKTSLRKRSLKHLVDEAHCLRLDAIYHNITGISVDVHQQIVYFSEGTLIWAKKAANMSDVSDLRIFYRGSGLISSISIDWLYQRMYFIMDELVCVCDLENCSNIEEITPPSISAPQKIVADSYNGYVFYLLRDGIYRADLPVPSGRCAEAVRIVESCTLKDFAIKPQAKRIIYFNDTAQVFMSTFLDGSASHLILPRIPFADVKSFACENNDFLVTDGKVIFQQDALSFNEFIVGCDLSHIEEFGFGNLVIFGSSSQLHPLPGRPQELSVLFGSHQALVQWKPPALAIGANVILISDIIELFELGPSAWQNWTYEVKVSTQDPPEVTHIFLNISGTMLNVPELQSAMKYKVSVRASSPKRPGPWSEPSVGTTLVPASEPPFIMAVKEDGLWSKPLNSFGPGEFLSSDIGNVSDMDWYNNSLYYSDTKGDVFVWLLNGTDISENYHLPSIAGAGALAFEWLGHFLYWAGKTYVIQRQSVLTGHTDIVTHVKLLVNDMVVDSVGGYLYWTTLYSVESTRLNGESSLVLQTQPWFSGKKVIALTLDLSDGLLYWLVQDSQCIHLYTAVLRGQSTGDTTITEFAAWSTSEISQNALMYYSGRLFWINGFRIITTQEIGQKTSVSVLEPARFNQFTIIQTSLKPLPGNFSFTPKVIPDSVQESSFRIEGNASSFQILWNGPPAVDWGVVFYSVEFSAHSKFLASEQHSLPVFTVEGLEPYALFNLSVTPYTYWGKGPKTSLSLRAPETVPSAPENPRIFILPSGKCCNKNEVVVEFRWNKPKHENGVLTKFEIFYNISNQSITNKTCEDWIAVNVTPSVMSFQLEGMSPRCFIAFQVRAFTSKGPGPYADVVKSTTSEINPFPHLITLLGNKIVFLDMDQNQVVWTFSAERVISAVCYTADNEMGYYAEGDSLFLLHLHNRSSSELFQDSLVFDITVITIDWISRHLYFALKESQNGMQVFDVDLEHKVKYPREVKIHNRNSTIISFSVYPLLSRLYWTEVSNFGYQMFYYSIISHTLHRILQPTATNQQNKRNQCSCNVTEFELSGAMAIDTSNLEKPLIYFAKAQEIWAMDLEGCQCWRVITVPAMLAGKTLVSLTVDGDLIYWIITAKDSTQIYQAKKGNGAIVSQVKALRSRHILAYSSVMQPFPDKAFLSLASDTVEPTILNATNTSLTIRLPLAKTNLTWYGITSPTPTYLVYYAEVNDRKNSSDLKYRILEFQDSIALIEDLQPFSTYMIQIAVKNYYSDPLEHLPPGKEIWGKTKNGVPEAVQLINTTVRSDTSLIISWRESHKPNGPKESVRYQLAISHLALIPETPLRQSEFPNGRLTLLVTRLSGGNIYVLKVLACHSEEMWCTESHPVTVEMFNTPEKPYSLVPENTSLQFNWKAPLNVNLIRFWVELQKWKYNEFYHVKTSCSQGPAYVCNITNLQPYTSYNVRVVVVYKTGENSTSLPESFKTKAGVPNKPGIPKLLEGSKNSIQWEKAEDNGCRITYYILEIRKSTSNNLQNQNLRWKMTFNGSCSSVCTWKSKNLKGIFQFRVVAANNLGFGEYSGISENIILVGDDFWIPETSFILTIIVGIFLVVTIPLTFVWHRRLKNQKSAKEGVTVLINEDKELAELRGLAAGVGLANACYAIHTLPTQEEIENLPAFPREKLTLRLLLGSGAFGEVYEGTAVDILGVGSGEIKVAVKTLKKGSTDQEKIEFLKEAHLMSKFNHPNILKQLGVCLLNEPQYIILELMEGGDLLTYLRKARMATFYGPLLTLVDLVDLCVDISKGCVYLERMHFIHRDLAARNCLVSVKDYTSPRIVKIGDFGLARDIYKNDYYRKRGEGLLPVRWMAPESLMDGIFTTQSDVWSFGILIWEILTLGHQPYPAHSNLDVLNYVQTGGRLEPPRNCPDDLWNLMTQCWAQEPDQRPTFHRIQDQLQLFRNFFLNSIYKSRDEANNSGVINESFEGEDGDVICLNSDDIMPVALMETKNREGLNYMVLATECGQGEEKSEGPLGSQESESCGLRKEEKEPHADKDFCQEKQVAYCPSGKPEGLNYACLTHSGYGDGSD

Structure (SMILES) | IC50 [1] [µM] | inhibition at 5 µM [1] [%] | IC50 [2] [µM] | also measured
C1=C(c2cccc(Nc3nccc(Nc4ccc5ncsc5c4)n3)c2)CCNC1 [drawing 304] | 0.041 | 101 | > 5 | –
Clc1nccc(Nc2cc(C3CC3)[nH]n2)n1 [drawing 298] | 2.1 | 38.4 | > 50 | –
CC(C)(C)OC(=O)NC1CCN(C(=O)c2ccc(Nc3ncc(Cl)c(Nc4ccc5ncsc5c4)n3)cc2)CC1 [drawing 309] | > 5 | 29.4 | > 5 | –
Cc1cc(O)cc(-c2nn(CC#N)cc2-c2ccnc(-c3cccnc3)c2)c1 [KIST301080] | – | – | – | IC50 [3]: 0.209 µM
C[C@@H](Oc1cc(-c2cnn(C3CCNCC3)c2)cnc1N)c1c(Cl)ccc(F)c1Cl [Crizotinib] | – | – | – | EC50 [4]: 0.012 to 0.02 µM
c1cc(Nc2cc(C3CC3)[nH]n2)nc(Nc2ccc(NCc3cc(C4OCCO4)c(C4OCCO4)s3)cc2)n1 [drawing 300] | 1.14 | 79.3 | > 50 | –
O=C(NCC1CCNCC1)c1ccc(Nc2ncc(Cl)c(Nc3ccc4ncsc4c3)n2)cc1 [drawing 331] | 1.01 | 100 | > 5 | –
COc1ccc(C2=CCNCC2)cc1Nc1nccc(Nc2ccc3ncsc3c2)n1 [drawing 330] | 0.003 | 100 | 0.802 | –
CSc1sc(-c2n[nH]cc2Br)c2c1C(=O)CC(C)(C)C2 [drawing 396] | – | – | – | EC50 [5]: > 100 µM; EC50 [6]: 18 µM; EC50 [7]: > 100 µM; EC50 [8]: > 100 µM; EC50 [9]: 94 µM
Cc1cccc(Nc2nccc(Nc3cccc(C(=O)NCCCN4CCOCC4)c3)n2)c1 [drawing 416] | – | – | – | EC50 ([5]; 24 h): > 100 µM; EC50 ([6]; 24 h): 99 µM; EC50 ([7]; 24 h): 76 µM; EC50 ([8]; Homo sapiens, 24 h): 34 µM; EC50 ([9]; Homo sapiens, LN-18, 24 h): 40 µM

More lines, main results first:

IC50 [1] [µM] | inhibition at 5 µM [1] [%] | IC50 [2] [µM] | Structure (SMILES) | also measured
0.405 | 92.2 | > 5 | CN1CCN(C(=O)c2ccc(Nc3ncc(Cl)c(Nc4ccc5ncsc5c4)n3)cc2)CC1 [drawing 307] | –
0.165 | 100 | > 5 | NC1CCN(C(=O)c2cccc(Nc3ncc(Cl)c(Nc4ccc5ncsc5c4)n3)c2)CC1 [drawing 332] | –
0.042 | 100 | 4.6 | c1cc(Nc2nccc(Nc3ccc4ncsc4c3)n2)cc(C2CCNCC2)c1 [drawing 303] | –
0.017 | 90 | > 5 | Brc1cccc(Nc2nccc(Nc3ccc4ncsc4c3)n2)c1 [drawing 305] | –
0.11 | 100 | > 5 | NCC1CCN(C(=O)c2cccc(Nc3ncc(Cl)c(Nc4ccc5ncsc5c4)n3)c2)CC1 [drawing 333] | –
0.189 | 100 | > 5 | O=C(O)c1cccc(Nc2ncc(Cl)c(Nc3ccc4ncsc4c3)n2)c1 [drawing 325] | –
0.38 | 100 | > 5 | O=C(NCC1CCNCC1)c1cccc(Nc2ncc(Cl)c(Nc3ccc4ncsc4c3)n2)c1 [drawing 334] | –
0.048 | 101 | 4.7 | Nc1cccc(C2CCN(c3nccc(Nc4ccc5ncsc5c4)n3)CC2)c1 [drawing 302] | –
0.045 | 100 | 18.9 | Nc1ccc(Nc2nccc(Nc3cc(C4CC4)[nH]n3)n2)cc1 [drawing 299] | –
0.444 | 100 | > 5 | NC1CCN(C(=O)c2ccc(Nc3ncc(Cl)c(Nc4ccc5ncsc5c4)n3)cc2)CC1 [drawing 327] | –
0.037 | 101 | 2.4 | O=C(O)c1ccc(Nc2ncc(Cl)c(Nc3ccc4ncsc4c3)n2)cc1 [drawing 308] | –
0.24 | 100 | > 5 | O=C(c1cccc(Nc2ncc(Cl)c(Nc3ccc4ncsc4c3)n2)c1)N1CCCCC1 [drawing 328] | –
0.368 | 100 | > 5 | NCC1CCN(C(=O)c2ccc(Nc3ncc(Cl)c(Nc4ccc5ncsc5c4)n3)cc2)CC1 [drawing 326] | –
0.33 | 100 | > 5 | CN1CCN(C(=O)c2cccc(Nc3ncc(Cl)c(Nc4ccc5ncsc5c4)n3)c2)CC1 [drawing 329] | –
0.07 | 87.9 | > 5 | O=C(c1ccc(Nc2ncc(Cl)c(Nc3ccc4ncsc4c3)n2)cc1)N1CCCCC1 [drawing 306] | –
